The subject of data set [1] is tissue-cultured hippocampus neuron. In words: Reactive oxygen species production induced by BSO in tissue-cultured hippocampus neuron (DCFDA). As to conditions: 1 mM BSO for 8 hours, compound 0.1, 0.5 and 1 μM; control not treated with BSO. The data set is classed as cell-based, mouse. As to the method: Then, the antioxidant effect of the lignan compound of the present invention in the tissue-cultured hippocampus neuron was analyzed. For this analysis, the hippocampus of a fetus extracted from a pregnant (18 days) mouse was cultured in neurobasal medium (Gibco BRL) containing B-27 supplements and 2 mM L-glutamine for 10 days. To induce oxidative stress to the tissue-cultured hippocampus neuron, it was treated with 1 mM BSO for 8 hours. Here, the tissue-cultured hippocampus neuron was also treated with each concentration (0.1, 0.5 and 1 μM) of the lignan compound of the present invention simultaneously to analyze the reactive oxygen species-inhibitory effect of the lignan compound of the present invention. The control was not treated with BSO. Then, the amount of reactive oxygen species produced was measured by a method known in the art (Jung, Y. S., Biochem Biophys Res Commun., 320(3):789-94, 2004) using 10 μM DCFDA(molecular probes).

For data set [2], the system named is lipid peroxidation of the brain tissue. In words: Lipid peroxidation of brain homogenate supernatant induced by hydrogen peroxide. Format: biochemical, rat. As to the method:
After anesthesia of a rat, the tissue of the rat was perfused with 0.9% physiological saline solution containing EDTA. The brain was then extracted from the rat and washed with ice-cold 20 mM Tris-HCl (pH 7.4). After removing water, the weight of the brain was measured. The brain was mixed with 0.1 g/ml of ice-cold 20 mM Tris-HCl (pH 7.4) and homogenized. The homogenized brain was centrifuged and the supernatant was collected. 40 μl of the supernatant was mixed with 40 mM of hydrogen peroxide to induce lipid peroxidation. Simultaneously, different concentration (0.5, 1, 5 and 10 μM) of the lignan compounds isolated from the Example 1 were added into the supernatant, respectively. After incubation of the supernatant in water (37° C.) for 30-60 minutes, 162.5 μl of R1 solution (lipid peroxidation assay kit, Cat. No. 437634, Calbiochem) and 37.5 μl of R2 solution (lipid peroxidation assay kit, Cat. No. 437634, Calbiochem) were added into the cultured supernatant, and the supernatant was further incubated at 45° C. for 40 minutes. Then, the absorbance of the incubated medium was measured at 586 nm to quantify the lipid peroxidation.

For a further data set, the system named is TNF-α. The experiment in a line: TNF-α production in LPS-activated microglia (ELISA). As to conditions: 1 μg/ml LPS, compound 2.5 and 10 μM, 24 hours. Format: cell-based, rat. From the text: (§1) When the microglia is activated by LPS, it synthesizes and secretes various pro-inflammatory cytokines such as IL-1, IL-6 and TNF-α (Chen, S. Neurobiol. Aging, 17:781-787, 1996). Therefore, in order to examine the anti-inflammatory effect of the lignan compound of the present invention, the effect of the lignan compound of the present invention on the production of IL-6 and TNF-α in the activated microglia. First, only the neocortex was isolated from the brain of 1 day-old rat. Then, a microglia-astroglia mixture was prepared according to a method known in the art (Kim, H. Y. et al., J. Immunol., 171:6072-6079, 2003). […] Then, the amount of IL-6 and TNF-α secreted into the cell cultured medium was measured with the solid-phase ELISA system (RPN2742 for IL-6, RPN2744 for TNF-α, Amersham Bioscience). For this analysis, 50 μl of the supernatant of the cultured medium of microglia and 50 μl of the standard of each material (purely isolated and quantified IL-6 or TNF-α) were added into a 96-well plate coated with an antibody specific to mouse IL-6 and TNF-α. […] Then, 100 μl of a stop solution (Amersham Bioscience) was added into each well to stop the reaction, and the absorbance of the solution in each well was measured with a microreader at 450 nm. […]
(ELISA stands for enzyme-linked immunosorbent assay.)

Another data set deals with IL-6. In words: IL-6 production in LPS-activated microglia (ELISA). Format: cell-based, rat. As to conditions: 1 μg/ml LPS, compound 2.5 and 10 μM, 24 hours.
Text: as §1

Data set [3] is described as follows: Toxicity in oral administration. As to conditions: rat, in vivo; oral administration to rats; data not shown; read-out: 50% lethal dose (LD50). As to the method: The lignan compound of the present invention was tested for toxicity in oral administration to rats, and as a result, it was observed that the 50% lethal dose (LD50) was more than 2,000 mg/kg (Data is not shown).

The structures appear in SMILES notation.

In general, LD50 refers to the dose at which mortality reaches 50%.

For the compound `COc1cc(C[C@H](C)[C@H](C)Cc2ccc3c(c2)OCO3)ccc1O` [macelignan, (8R,8′S)-7-(3,4-methylenedioxyphenyl)-7′-(4-hydroxy-3-methoxyphenyl)-8,8′-dimethylbutane], the “production of reactive oxygen species in the tissue-cultured hippocampus neuron” value in data set [1] is on record as “in the similar level as the control”. The “lipid peroxidation induced by hydrogen peroxide at 10 μM” value in data set [2] (10 μM compound, compared with control without hydrogen peroxide) is on record as “in the similar level as the control”. Moreover, in data set [2] (rat brain supernatant, 40 mM hydrogen peroxide, compound 0.5, 1, 5 and 10 μM), the “lipid peroxidation induced by hydrogen peroxide” value is “dose-dependently inhibited”. Moreover, the “production of TNF-α induced by LPS” value with TNF-α is reported as “dose-dependently inhibited”. For the same compound, the “production of IL-6 induced by LPS” value with IL-6 was “dose-dependently inhibited”. Moreover, the LD50 in data set [3] is over 2000 mg/kg.
